Experimental data from patent publication US20060247187A1, “Attenuation of disorders by aminoglycosides” (priority 2005, published 2006).

What was measured:
Male Sprague-Dawley rats [1] = assay: Gentamicin nephrotoxicity model: serum and urine biochemistry, renal function, kidney weight after 8 days of treatment
Protocol: Group 1 (Gentamicin): These animals received timed daily subcutaneous injections of gentamicin (50 mg/kg/d) in divided doses, delivered during the resting period, for 8 consecutive days.
Group 3 (Sham): These animals received twice daily subcutaneous injections of equivalent amount of vehicle (0.9% NaCl) according to the same timed protocol for 8 consecutive days.
Kidneys were harvested and blood collections were performed. […] One kidney was immediately removed for histological examination.
(Roche Diagnostics, Basel, Switzerland). […] Gentamicin standards were prepared in normal rat sera.
Serum and urine creatinine were measured by HPLC.

Male Sprague-Dawley rats [2] = assay: Morphological examination of the kidney (PAS, propidium iodide apoptosis, GPX-3 in situ hybridization); type: in vivo, rat
Protocol: Paraffin embedded sections were stained with periodic acid-Schiff (PAS) and examined by light microscopy to determine the extent of gentamicin toxicity (Kopple et al., 2002). In addition, tubular apoptosis was assessed by staining for DNA fragmentation using propidium iodide. Briefly, sections (3 μm) from the same paraffin blocks used for PAS staining were de-paraffinised with xylene and rehydrated, soaked with PBS pH 7.4 and incubated for 10 minutes with propidium iodide 10 μg/ml and RNAse A 100 μg/ml at 37° C. Sections were subsequently washed extensively with PBS, rinsed with distilled water and mounted with an aqueous media (AFT, Behring Diagnostics, Somerville, N.J.). On a fluorescence microscope, renal tissue was identified on bright field and then, using a rhodamine filter set, the normal and apoptotic tubular nuclei were counted. Twenty cortical windows were assessed in each animal. The results were expressed as a mean number of fragmented and condensed nuclei (apoptotic cells) per window. As a marker of proximal tubular injury, renal gene expression of extracellular glutathione peroxidase, GPX-3 (Yazar et al., 2003) was also assessed in paraffin fixed sections by in situ hybridization

[3] = Serum and renal cortical gentamicin levels; type: in vivo, rat
Protocol: (Roche Diagnostics, Basel, Switzerland). […] Gentamicin standards were prepared in normal rat sera. […] To measure the gentamicin concentrations in the renal cortex, the kidney was processed and analysed. The upper pole of the vertically divided right kidney was removed and snap-frozen at minus 80° C. until use. […] After centrifugation, a 100 μl aliquot of the supernatant was used immediately for gentamicin determination by HPLC. […] Fluorescence detection was set at excitation 340 nm, emission 418 nm. The […] gentamicin peak was used to quantify the total gentamicin content. Calibration curves of the components were prepared in a drugfree supernatant of the renal homogenates and were linear over the concentration range 50-500 μg/ml. […] Renal cortical gentamicin concentrations were expressed per milligram of renal cortical protein.

Male Sprague-Dawley rats [4] = assay: Oxidation, lipoxidation and glycation products (AOPP, MDA-linked fluorescence, AGE fluorescence, LMW-AGEs, CML staining)
Protocol: Serum and tissue advanced oxidation products (AOPP) were measured by spectrophotometric methods (Martin-Gallan et al., 2003). This assay largely detects the presence of protein dityrosine modifications (Witko-Sarsat et al., 2003). Briefly, 200 μl of homogenised renal tissue or serum was diluted 1:3 in PBS, 100 μL of 1.16 mol/L potassium iodide (KI, Sigma) were then added to each tube, followed two minutes later by 200 μL of concentrated acetic acid. […] Concentrations of AOPP were expressed as arbitrary units calibrated to a chloramine T standard.
Tissue-linked glycoxidation products were measured, based on tissue fluorescence using a flow injection assay (Wrobel et al., 1998). Briefly, renal tissue was enymatically hydrolysed using proteinase K. The solution was then centrifuged to remove sediment and the aqueous phase injected directly into a water column flowing through a fluorescence detector (Waters 470, Waters USA) and UV detector (Hewlett-Packard, USA) in series. Pentosidine-linked fluorescence was measured at excitation 325 nm with an emission at 385 nm (Meng et al., 2000). The level of lipid peroxidation was estimated by determining the malondialdehyde (MDA)-linked fluorescence (390 nm/emission 460 nm) (Meng et al., 1998). The values of fluorescence were corrected against those of the blanks containing the same concentration of proteinase K and adjusted for the peptide content using the absorbance at 280 nm. The data were expressed in arbitrary units, with […] being given the reference value of 1. Finally, paraffin sections were stained for CML-AGEs

[5] = cited from earlier work
Male Sprague-Dawley rats [6] = assay: Serum and urine parameters after aminoguanidine pre-treatment but before gentamicin therapy; conditions: p<0.05
Protocol: Male Sprague-Dawley rats were randomly assigned to one of three groups:
Group 2 (Gentamicin+aminoguanidine): rats received aminoguanidine 4 g/L in their drinking water for 2 weeks, prior to gentamicin dosing as described above.
Prior to gentamicin dosing and on day 7 of the study, animals were placed individually in metabolic cages and 24 h urine collected and food intake recorded. Blood was collected into heparinised tubes, after being obtained from the tail of each rat, at baseline and on days 2 and 5. The blood samples were always obtained before the daily injections were given, as well as being taken 24 hours following the last injection and at the time of sacrifice. […]
Standard physiological and biochemical parameters including body weight and food and water intake, were measured before and after gentamicin dosing regimens. […] Serum gentamicin was measured in serum by a polarisation fluorescence immunoassay in a TDx analyser (Abbott Diagnostics, Abbott Park, Ill., USA). […] To quantify enzymuria, urinary excretion of alanine transaminase (ALT), aspartate transferase (AST), alkaline phosphatase (AP) and lactate dehydrogenase (LDH) were measured using a Hitachi 747 Automatic Analyser, as above. […] Therefore the urinary excretion of the electrolytes were measured in this experimental protocol and expressed as the fractional excretion (FE), which is calculated as: FEx(%)=(Ux×PCr)/(Px×UCr) […]

Male Sprague-Dawley rats [7] = assay: Urinary nitrate/nitrite (NOx) excretion by Griess reaction; type: in vivo, rat; conditions: per mg creatinine, after treatment
Protocol: As a marker of renal NO generation, daily excretion of urinary nitrate/nitrite (NOx) was measured using the Griess reaction (Komers et al., 1994; Miranda et al., 2001). Briefly, 0.5 ml of urine was centrifuged at 10,000 g for 15 minutes, the supernatant removed and diluted fivefold using deionised water. From each sample 50 μl was dispensed into a 96-well plate followed by 50 μl of freshly prepared vanadium chloride solution (0.8 mg/ml in 1M HCl) and immediately followed by 50 μl of Griess reagent (2% sulphanilamide in 1.47M hydrochloric acid) and 0.1% N-(1-aphthyl)ethylenediamine dihydrochloride in deionised water. […] Each sample was assayed in triplicate. Urinary NOx excretion was expressed as μmol/mg creatinine.

[8] = system: Escherichia coli (ATCC 25922); assay: Bactericidal studies: MIC of gentamicin in presence and absence of aminoguanidine; type: cell-based
Protocol: A standardised E coli (ATCC 25922) was then inoculated into the broth and the lowest concentration of gentamicin to inhibit the growth of the bacterium determined (MIC). Results are expressed in milligrams of gentamicin per litre. Studies were performed in duplicate on two separate occasions by a blinded operator. A clinically significant change was defined as an increase in the MIC by two or more doubling dilutions.

Male Sprague-Dawley rats [9] = conditions: serum, after treatment
Protocol: Consequently, serum ACE activity was estimated in animals before and after administration of gentamicin using the synthetic ACE-specific substrate, hippuryl-histidyl-leucine (Shihabi and Scaro, 1981). The released product (His-Leu) was fluorimetrically measured after reaction with ophthaldehyde in time-fixed assays. Briefly, 20 μl of 10 times diluted plasma was mixed with 20 μl Hip-His-Leu (final conc.=1 mM) made up to 50 μl with 10 μL of 100 mM Tris-HCl, 300 mM NaCl, pH 8.3. The samples were then mixed and incubated in 37° C. water bath for 30 minutes. To detect the generated His-Leu, 120 μl of 0.3 N NaOH and 10 μl o-phthaldehyde were then added and the samples briefly vortexed and incubated at room temperature for 10 minutes. To terminate the derivitisation reaction, 20 μl of 3N HCl was added and the samples centrifuged for 5 minutes at 15, 000 rpm to remove insoluble residue. The resulting supernatant was transferred to a black 96 well plate and fluorescence read at excitation=355 nm, emission=485 nm in a fmax fluorescence detector (Molecular Biosystems, USA). Results were corrected for blank fluorescence detected in the absence of Hip-His-Leu. Results are expressed as nmol of His-Leu generated per minute of reaction time per ml of plasma (nmol/min/ml).

[10] = prospective studies, gentamicin for over 7 days; cited from earlier work
[11] = following 8-days of treatment, Mean ± SEM
[12] = serum, following 8-days of treatment, Mean ± SEM

For `N=C(N)NN` [aminoguanidine], the Normalised kidney weight (Male Sprague-Dawley rats [1]; rat, in vivo) was “reduced the renal weight”, the “Renal blood flow as estimated by the clearance of endogenous hippurate” value (Male Sprague-Dawley rats [1]; rat, in vivo) was 12.1 ± 1.1 mL/min and the “Fragmented and condensed nuclei (apoptotic cells) per field” value (Male Sprague-Dawley rats [2]; rat, in vivo) was 1-2 per field. For the same compound, the “Tubular expression of glutathione peroxidase-3” value (Male Sprague-Dawley rats [2]; rat, in vivo) was “not significantly changed”, the “Reduction of gentamicin content of the renal cortex” value ([3]; FIG. 5, after 8 days, aminoguanidine co-administered with gentamicin, vs gentamicin alone, p<0.001) was “approximately two thirds” and the “Serum gentamicin levels at day 2 and day 5” value ([3]; effect of co-administration of aminoguanidine) was “unaffected”. The “Staining for CML-AGE in kidney” value (Male Sprague-Dawley rats [4]; rat, in vivo) was “able to reduce staining for CML-AGE”, the Half life [5] was 4 h and the Urinary potassium excretion (Male Sprague-Dawley rats [6]) was “reduced”.

For `CNC(C)C1CCC(N)C(OC2C(N)CC(N)C(OC3OCC(C)(O)C(NC)C3O)C2O)O1` (stereo not drawn) [Gentamicin, gentamicin], the Normalised kidney weight (Male Sprague-Dawley rats [1]; FIG. 2, aminoguanidine group also received gentamicin) was “significantly higher”, the “Renal blood flow as estimated by the clearance of endogenous hippurate” value (Male Sprague-Dawley rats [1]; after 8 days gentamicin, aminoguanidine group also received gentamicin) was 8.1 ± 1.1 mL/min and the “Urine Volume” value (Male Sprague-Dawley rats [1]; following 8-days of treatment, gentamicin 50 mg/kg/d s.c., Mean ± SEM) was 29 ± 6 mL/day. The FeCa (Male Sprague-Dawley rats [1]; [11]) was 6 ± 3%, the FeK (Male Sprague-Dawley rats [1]; [11]) was 70 ± 20 % and the FeMg (Male Sprague-Dawley rats [1]; [11]) was 21 ± 5 %. For the same compound, the “Urine ALT” value (Male Sprague-Dawley rats [1]; [11]) was 10.5 ± 4.6 U/ml, the “Urine AP” value (Male Sprague-Dawley rats [1]; [11]) was 119 ± 29 U/ml and the “Urine AST” value (Male Sprague-Dawley rats [1]; [11]) was 147 ± 62 U/ml. The “Urine LDH” value (Male Sprague-Dawley rats [1]; [11]) was 489 ± 100 U/ml, the Creatinine clearance (Male Sprague-Dawley rats [1]; following 8-days of treatment, Mean ± SEM, none in table head) was 1.3 ± 0.3 mL/min and the “Fall in creatinine clearance compared to untreated animals” value (Male Sprague-Dawley rats [1]; gentamicin alone, 8 days) was “greater than 50%”. For the same compound, the “Serum LDH” value (Male Sprague-Dawley rats [1]; marker of renal injury, after treatment) was 380 ± 76 IU/ml, the Creatinine (Male Sprague-Dawley rats [1]; [12]) was 122 ± 55 µM and the Urea (Male Sprague-Dawley rats [1]; [12]) was 20.1 ± 5.6 mM. For the same compound, the “Urine NOx” value (Male Sprague-Dawley rats [7]) was 4.1 ± 0.4 µmol/mg, the “Tubular necrosis (PAS histology of renal cortex)” value (Male Sprague-Dawley rats [2]; FIG. 3, after 8 days of treatment) was “extensive and marked tubular necrosis” and the “Tubular expression of glutathione peroxidase-3” value (Male Sprague-Dawley rats [2]; FIG. 4, in situ hybridization, aminoguanidine group also received gentamicin) was “significantly reduced”. The “Fragmented and condensed nuclei (apoptotic cells) per field” value (Male Sprague-Dawley rats [2]; tubular nuclei, propidium iodide, aminoguanidine group also received gentamicin) was 12±2 per field, the “Staining for CML-AGE in kidney” value (Male Sprague-Dawley rats [4]; FIG. 7, aminoguanidine group also received gentamicin) was “substantially increased” and the “Serum AOPPs” value (Male Sprague-Dawley rats [4]; FIG. 8) was “elevated to approximately the same extent”. For the same compound, the “Serum MDA-linked fluorescence” value (Male Sprague-Dawley rats [4]; FIG. 8, compared to sham animals or those receiving aminoguanidine) was “elevated”, the “Circulating levels of LMW-AGEs” value (Male Sprague-Dawley rats [4]; after 8 days, aminoguanidine group also received gentamicin) was “elevated to over twice the level seen in untreated animals” and the “Cortical AGE-fluorescence” value (Male Sprague-Dawley rats [4]; arbitrary units, untreated 1.0±0.3, p=NS) was 1.2±0.3. The MIC for gentamicin ([8]; in the absence of aminoguanidine) was 0.2 µg/mL, the MIC for gentamicin ([8]; in the presence of aminoguanidine at 10 μg/ml) was 0.3 µg/mL and the MIC for gentamicin ([8]; in the presence of aminoguanidine at 100 μg/ml) was 0.2 µg/mL. For the same compound, the MIC for gentamicin ([8]; in the presence of aminoguanidine at 1 mg/ml) was 0.5 µg/mL, the ACE activity (Male Sprague-Dawley rats [9]) was 5.1 ± 0.4 nmol/mL/min and the “Patients showing signs of nephrotoxicity” value [10] was “up to 50%”.
